Laboratory results reported in patent publication US20100035822A1, “PROLINE-RICH PEPTIDES, PHARMACEUTICAL COMPOSITION, USE OF ONE OR MORE PEPTIDES AND METHOD OF TREATMENT” (priority 2006, published 2010).
“Also recorded” adds a separate entry of the source.

Assays:
[1] = tested on: SK-N-AS cells (human neuroblastoma); assay: Free intracellular Ca2+ concentration in SK-N-AS cells (fluo-3 AM, confocal microscopy); format: cell-based; details: 1 μM
Experimental: In these experiments the variation in free intracellular calcium [Ca^2+]i concentration was measured in SK-N-AS cells (human neuroblastoma, ATCC No. CRL-2137) after addition of 1 μmolar of peptides SEQ ID NO 1 or SEQ ID NO 8, or of 1 μmolar captopril. Cells were kept in DMEM (Dulbecco Modified Medium), supplemented with 10% fetal bovine serum (FBS) and 1% non-essential amino acids, at 5% CO2 atmosphere, at 37° C., and 95% relative humidity. Cells were treated with trypsin, and replicated at adequate cell concentrations.
Measurements of variation in the concentration of free [Ca^2+]i were performed with a confocal microscope LSM 510 (Zeiss, Jena, Germany), as described by Martins et al., (Martins et al., Neuronal differentiation of P19 embryonal carcinoma cells modulates kinin B2 receptor gene expression and function. J. Biol. Chem. 280: 19576-19586, 2005). Approximately 5×10^4 SK-N-AS cells were plated on 60 mm plates 24 hours prior to measurement, and then treated with 4 μM fluo-3 AM (Invitrogen Corporation) in 0.5% DMSO and 0.1% non-ionic surfactant pluronic acid F-127 for 30 minutes at 37° C. Cells were washed with DMEM containing 10% FBS, and transferred to defined medium (5 μg/ml insulin, 30 μg/ml transferrin, 20 μM ethanolamine, 30 nM sodium selenite, 1 μM sodium pyruvate, 1% non-essential amino acids, 1 mM glutamine, 100 μg/ml penicillin, 100 μg/ml streptomycin, 10 mM HEPES pH 7.4 in DMEM). The fluorescent fluo-3 AM was excited at 488 nm, and the fluorescence measured at 526 nm.
Variations in the [Ca^2+]i were measured in non-stimulated cells, and in cells stimulated with peptides SEQ ID NO 1 or SEQ ID NO 8, or with captopril (Sigma Aldrich). Increase of fluorescence was monitored for 2 minutes, and images were acquired in 256×256 pixels every second. At the end of each experiment, 5 μM ionophore (4-Br-A23187) were added, followed by 10 mM EGTA, or 20 μM digitonin to determine maximum and minimum fluorescence, Fmax and Fmin respectively, as described by Grynkiewicz et al., (1985).
Intracellular calcium concentrations [Ca^2+]i, related to fluorescence (F) values obtained after addition of peptides SEQ ID NO 1 or SEQ ID NO 8, were calculated with the equation: [Ca^2+]=Kd(F−Fmin)/(Fmax−F), assuming Kd=450 nM for fluo-3 AM (Hallett et al., 1990).

[2] = tested on: spontaneously hypertensive rats (SHR); assay: Anti-hypertensive action on SHR anaesthetized with pentobarbitone; format: in vivo, rat
Experimental: Adult male SHR, weighing between 250 and 350 g, were used. Material and methods described in Example 12 were employed, except for those described below.
1) Five SHR per group were anaesthetized intraperitoneally with 60 mg/Kg body weight with sodium pentobarbitone. Mean arterial blood pressure and heart rate were continuously calculated from arterial blood pressure pulses (PAP). Cardiovascular parameters were monitored during 30 minutes before i.v. administration of peptides SEQ ID NO 1, or SEQ ID NO 4, or SEQ ID NO 8 (71 nmoles/Kg body weight), or captopril (10 μmoles/Kg body weight), in a final volume of 0.5 mL 0.9% NaCl solution. The control was the vehicle (0.9% NaCl). PAM and heart rate were continuously monitored up to 180 minutes after administration of the anti-hypertensive compound.
2) The day before measurements, the SHR underwent surgery for catheter implantation into the femoral artery and vein. […] Cardiovascular parameters of the rats were monitored for 60 minutes before i.v. administration of peptides SEQ ID NO 1, or SEQ ID NO 4, or SEQ ID NO 8 (71 nmoles/Kg body weight), or captopril (10 μmoles/Kg body weight), in a final volume of 0.5 mL 0.9% NaCl solution. […] MAP and heart rate were continuously monitored up to 360 minutes after administration of the peptides.
Results, presented in FIG. 14B, are expressed as mean±SEM. […]

[3] = tested on: spontaneously hypertensive rats (SHR); assay: Anti-hypertensive effect on mean arterial blood pressure of SHR; format: in vivo, rat
Experimental: In vivo studies on the effect of peptides of the present invention were performed on adult male spontaneously hypertensive rats, and normotensive Wistar rats (Rattus novergicus) weighing 250 to 350 g. Animals had free access to chow (Nuvilab) and water, and were submitted to a light-dark cycle of 12 hours each. Procedures involving animals and their care were conducted according to Giles [Giles A. R. Guidelines for the use of animals in biomedical research. Thromb. Haemost. 58: 1078-1084, 1987]. […]
The cardiovascular parameters (pulse arterial pressure (PAP), mean arterial pressure (MAP), and heart rate (HR)) were monitored by a solid-state strain gauge transducer connected to a computer through a data acquisition system (MP 100; BIOPAC Systems, Inc, Santa Barbara, Calif., USA). The PAP, MAP and HR were continuously presented in different monitor channels and recorded in the computer hard disk for late analysis.
Before drug administration, cardiovascular parameters of the rats were monitored for 40 minutes. […] Arterial blood pressure and heart frequency were continuously monitored for 360 minutes.
Results were expressed as the mean variation of MAP±standard deviation. […]

Molecule | change of intracellular [Ca2+]i [1] | effect of pentobarbitone on the anti-hypertensive action [2] | dose of optimum anti-hypertensive activity ([3]; effect is reduced at higher and at lower doses) | molar dose needed for anti-hypertensive activity relative to the peptides ([3]; e.g. 10 μmoles/Kg, the dose that inhibits ACE in vivo)
<ENWPHPQIPP [SEQ ID NO 8] | Increase | susceptible to the action of pentobarbitone | ~71 nmoles/Kg of body weight | 
CC(CS)C(=O)N1CCC[C@@H]1C(=O)O (stereo partly drawn) [captopril, D-3-mercapto-2-methyl-1-oxopropyl-L-proline, reference compound] | no change; also recorded: did not cause any change | not blocked by pentobarbitone |  | approximately 1000 fold
